Assays:
Assay in all cases: relative viability (nuclei count vs DMSO), 5 days (fraction); higher = more cells survive
[1] = compound: Cc1nc(Nc2ncc(C(=O)Nc3c(C)cccc3Cl)s2)cc(N2CCN(CCO)CC2)n1 [Dasatinib] + N=C(N)NC(=N)NCCc1ccccc1 [Phenformin] (partner 250 µM)
Outline: (§1)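 For relative viability, nuclei counts in treated wells were divided by those in vehicle wells. Lung cancer cell lines had been pin-tool dosed in 1536-well plates the day after seeding and cultured for 5 days, then fixed and stained in one step (final 0.05% Triton X-100, 1% formaldehyde, 1 ug/ml Hoechst) and imaged at 4×. Doses were one drug alone or a fixed anchor-drug dose plus five library-drug doses (not always all listed) in √10 steps, and values are duplicate-plate medians.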

[2] = compound: C1CC1C(=O)NC2=NNC3=C2C=CC(=C3)C4=CC(=CC=C4)C(=O)NC5CC5 [XMD13-2] + Nc1ncn([C@H]2C[C@H](O)[C@@H](CO)O2)c(=O)n1 [Decitabine] (partner 2 µM)
Outline: as §1

[3] = compound: C1CC1C(=O)NC2=NNC3=C2C=CC(=C3)C4=CC(=CC=C4)C(=O)NC5CC5 [XMD13-2] + CC(=O)c1c(C)c2cnc(Nc3ccc(N4CCNCC4)cn3)nc2n(C2CCCC2)c1=O [Palbociclib] (partner 0.5 µM)
Outline: as §1

[4] = compound: Cc1nc(Nc2ncc(C(=O)Nc3c(C)cccc3Cl)s2)cc(N2CCN(CCO)CC2)n1 [Dasatinib] + O=C(c1cc(Cc2n[nH]c(=O)c3ccccc23)ccc1F)N1CCN(C(=O)C2CC2)CC1 [Olaparib] (partner 8 µM)
Outline: as §1

| Cell Line | relative viability ([1]; first compound 0.005 µM) | relative viability ([1]; first compound 0.01581 µM) | relative viability ([1]; first compound 0.05 µM) | relative viability ([1]; first compound 0.1581 µM) | relative viability ([1]; first compound 0.5 µM) | relative viability ([2]; first compound 0.05 µM) | relative viability ([2]; first compound 0.1581 µM) | relative viability ([2]; first compound 0.5 µM) | relative viability ([2]; first compound 1.581 µM) | relative viability ([2]; first compound 5 µM) | relative viability ([3]; first compound 0.05 µM) | relative viability ([3]; first compound 0.1581 µM) | relative viability ([3]; first compound 0.5 µM) | relative viability ([3]; first compound 1.581 µM) | relative viability ([3]; first compound 5 µM) | relative viability ([4]; first compound 0.005 µM) | relative viability ([4]; first compound 0.01581 µM) | relative viability ([4]; first compound 0.05 µM) | relative viability ([4]; first compound 0.1581 µM) | relative viability ([4]; first compound 0.5 µM) |
| --- | --- | --- | --- | --- | --- | --- | --- | --- | --- | --- | --- | --- | --- | --- | --- | --- | --- | --- | --- | --- |
| 201T | 0.446 | 0.33 | 0.338 | 0.341 | 0.221 | 0.861 | 0.839 | 0.905 | 0.86 | 0.902 | 0.356 | 0.377 | 0.539 | 0.357 | 0.34 | 0.783 | 0.753 | 0.707 | 0.636 | 0.445 |
| A549 | 0.207 | 0.165 | 0.175 | 0.137 | 0.0717 | 0.307 | 0.233 | 0.289 | 0.247 | 0.24 | – | – | – | – | – | 0.312 | 0.306 | 0.269 | 0.308 | 0.116 |
| A-427 | 0.326 | 0.262 | 0.277 | 0.266 | 0.225 | 0.574 | 0.553 | 0.612 | – | 0.503 | 0.568 | 0.499 | 0.573 | – | 0.473 | 0.704 | 0.646 | 0.637 | 0.574 | 0.563 |
| ABC-1 | 0.22 | 0.256 | 0.245 | 0.221 | 0.238 | 1.13 | 1.33 | 1.24 | – | 1.11 | 0.72 | 0.606 | 0.78 | – | 0.556 | 0.867 | 0.767 | 0.786 | 0.621 | 0.841 |
| BEN | 0.249 | 0.213 | 0.249 | 0.241 | 0.206 | 0.803 | 0.705 | 0.719 | 0.648 | 0.705 | 0.462 | 0.508 | 0.492 | 0.489 | 0.468 | 0.755 | 0.641 | 0.724 | 0.549 | 0.456 |
| CAL-12T | 0.574 | 0.554 | 0.411 | 0.273 | 0.174 | – | – | – | – | – | 0.567 | 0.418 | 0.478 | 0.504 | 0.371 | 0.689 | 0.688 | 0.877 | 0.755 | 0.575 |
| COR-L23 | 0.431 | 0.348 | 0.384 | 0.374 | 0.321 | 0.438 | 0.399 | 0.513 | 0.458 | 0.376 | 0.248 | 0.298 | 0.295 | 0.294 | 0.365 | 0.338 | 0.294 | 0.325 | 0.208 | 0.211 |
| COR-L 105 | 0.441 | 0.378 | 0.312 | 0.278 | 0.16 | 0.747 | 0.717 | 0.755 | 0.66 | 0.638 | 0.405 | 0.412 | 0.4 | 0.404 | 0.42 | 0.517 | 0.494 | 0.617 | 0.452 | 0.336 |
| Calu-6 | – | – | – | – | – | – | – | – | – | – | – | – | – | – | – | 0.57 | 0.434 | 0.449 | 0.357 | 0.34 |
| ChaGo-K-1 | 0.546 | 0.463 | 0.41 | 0.442 | 0.377 | 0.521 | 0.53 | 0.528 | 0.511 | 0.496 | 0.923 | 0.897 | 0.958 | 0.92 | 0.795 | 0.424 | 0.404 | 0.426 | 0.393 | 0.325 |
| EBC-1 | – | – | – | – | – | – | – | – | – | – | – | – | – | – | – | 0.803 | 0.619 | 0.612 | 0.613 | 0.602 |
| EKVX | 0.218 | 0.21 | 0.177 | 0.136 | 0.102 | 0.395 | 0.32 | 0.419 | – | 0.307 | 0.45 | 0.376 | 0.33 | – | 0.397 | 0.852 | 0.669 | 0.676 | 0.338 | 0.189 |
| EMC-BAC-2 | 0.476 | 0.326 | 0.429 | 0.224 | 0.172 | 1.09 | 0.967 | 0.997 | – | 0.878 | 0.558 | 0.519 | 0.536 | 0.497 | 0.47 | 0.462 | 0.404 | 0.447 | 0.355 | 0.301 |
| EPLC-272H | 0.313 | 0.252 | 0.386 | 0.261 | 0.0761 | 0.363 | 0.391 | 0.485 | 0.339 | 0.314 | 0.314 | 0.344 | 0.329 | 0.279 | 0.317 | 0.793 | 0.681 | 0.697 | 0.33 | 0.208 |
| H3255 | 0.312 | 0.344 | 0.341 | 0.322 | 0.274 | 0.749 | 0.72 | 0.532 | – | 0.603 | 0.316 | 0.291 | 0.309 | 0.334 | 0.306 | 0.551 | 0.604 | 0.563 | 0.476 | 0.341 |

— the supplement of paper PMC10307832
